From patent publication US20260364210A1, “COMPOSITIONS AND METHODS FOR TRANSGLUTAMINASE-MEDIATED ENDOCYTOSIS” (The Board of Trustees of the Leland Stanford Junior …, priority 2022, published 2026)
Values belong to the molecule of their own block, whether it stands above or below them. Residues, ends and D or L forms follow the SMILES beside them.

Columns and labels:
[1] = system: clathrin mediated endocytosis; experiment: Inhibition of α2M / 33-mer endocytosis by inhibitors of clathrin mediated endocytosis in NRK cells; assay type: cell-based, rat
Excerpt: FIG. 7A-7D: (A) Endocytosis of α2M (green) and 33 mer gluten peptide (red) by NRK cells.
Low density lipoprotein (LDL) receptor-related protein 1 (LRP-1, a.k.a., (α2M receptor or CD91), a member of the LDL receptor family, is responsible for receptor-mediated endocytosis of α2M. Although this receptor is expressed on the surface of a wide range of cell types within the body, α2M endocytosis by LRP-1 is only triggered when this ubiquitous plasma protein undergoes a conformational change upon binding to its protease or non-protease ligands (Bres and Faissner, 2019). We sought to establish whether endocytosis of the ternary α2M-TG2-peptide complex was mediated by LRP-1 using pharmacologic inhibitors of clathrin mediated endocytosis.

[2] = system: normal rat kidney (NRK) cells; experiment: Uptake of fluorescent probe by NRK cells with or without α2M; assay type: cell-based
Excerpt: (C) Fluorescently tagged α2M colocalizes strongly with HB-230.
FIG. 15. Uptake of HB-2121.
Puncta of two distinct sizes were observed.
To verify that HB230 internalization was dependent on TG2 activity, HB258 was designed and synthesized as a control probe. This dihydro-analog is otherwise identical to HB230 but lacks its electrophilic warhead and is therefore unable to irreversibly bond to the active site C277 residue of TG2.

streptavidin = experiment: Endocytosis of fluorescent streptavidin by NRK cells; assay type: cell-based, rat
Description: FIG. 11: (A) Treating NRK cells with increasing concentrations of HB-3-003 in the presence of fluorescently tagged streptavidin leads to increased internalization of streptavidin after a 90 min treatment. (B) Quantification of dose response.
In order to determine the ability of this pathway to clear specifically targeted proteins from the extracellular environment, we synthesized a pentapeptide harboring the electrophilic warhead and a PEG-4 biotin conjugated to the DAB substituted Y amino acid (HB2110). Streptavidin is expected to bind to the biotin arm of the probe, and thus be endocytosed along with the rest of the complex as previously described. To test this hypothesis NRK cells were treated with 2 μM HB2110 and 1 μM Cy5-conjugated streptavidin.
We also synthesized the equivalent pentapeptide harbouring a Gln residue in the place of the electrophilic warhead, with biotin conjugated to the DAB substituted Y amino acid through a PEG linker (HB3-3). We then assed the ability of cells to endocytose fluorescent streptavidin in the presence of HB3-3 and α2M.

NRK cells [3] = experiment: Intracellular payload (Cy5) release in NRK cells with or without cathepsin B inhibitor; assay type: cell-based, rat
Description: FIG. 13A-13B: (A) HB-2108 is strongly endocytosed and cleaved leading to diffuse staining, (B) Inhibiting Cathepsin B mitigates diffuse pattern.
We synthesized HB2108, by linking AcPQLPF to Cy5 via a cathepsin-labile valine-citrulline linker. NRK cells were then treated with HB2108 and α2M in the presence and absence of a cathepsin B inhibitor.

NRK cells [4] = experiment: Co-localized endocytosis of Sulfo-Cy5 33-mer gluten peptide and fluorescent α2M in NRK cells; assay type: cell-based, rat; conditions: Sulfo-Cy5-tagged 33 mer; compared with α2M and HB230
Description: FIGS. 6A-6B: Fluorescently tagged 33 mer peptide (A) induces a similar pattern of internalization of α2M as HB-230 (B).
Thus far, endocytosis of the TG2-α2M complex had exclusively been visualized using peptidic probes that irreversibly label the active site of TG2. To investigate whether transient enzyme-substrate complexes can be efficiently internalized in an α2M-dependent manner, NRK cells were co-incubated with fluorescent α2M and the aforementioned 33-residue gluten peptide (33 mer) tagged with a Sulfo-Cy5 fluorophore.

cubilin = experiment: Depletion of cell surface cubilin on NRK cells; assay type: cell-based, rat
Description: FIG. 12A-12C: (A) Treating NRK cells with increasing concentrations of HB-3-002 leads to decrease of cell membrane cubilin after a 90 min treatment. (B) Quantification of dose response.
Cell surface proteins can also be pharmacological targets. Thus we targeted cubilin, the canonical receptor for the intrinsic factor (IF)-vitamin B12 complex. We synthesized a pentapeptide harbouring a Gln residue in the X position, and vitamin B12 conjugated to the DAB substituted Y amino acid through a PEG-5 linker (HB3-2). […] Cubilin is stained using a sheep anti cubilin antibody which recognizes rat cubilin and an ovine Alexa-647 secondary antibody.

TG2 = conditions: role: inhibitor; absence of active site occupancy; Palanski and Khosla, 2018; cited from earlier work
α2M = experiment: Internalization of fluorescently labeled α2M by NRK cells in the presence of unlabeled TG2 inhibitors; assay type: cell-based, rat; conditions: 100 μM cystamine by itself
Description: FIG. 5A-5C: (A) HB-225 induces a dose dependent uptake of fluorescently tagged α2M.
To identify the conformational requirements for high-affinity recognition of TG2 by α2M, fluorescently labeled α2M was added to NRK cell cultures in the presence of different (unlabeled) TG2 inhibitors.

chymotrypsin = experiment: Metabolism by chymotrypsin; assay type: in vitro ADME; conditions: role: substrate
Excerpt: (§1) FIGS. 14A-14B. Metabolic stability of HB-230 and HB-2121. (A) HB-230 is transformed by chymotrypsin to give the C-terminal carboxylic acid. This metabolite is subsequently cleaved by carboxypeptidase to give the tetrapeptide without the terminal phenylalanine. (B) HB-2121 is stable to both chymotrypsin and carboxypeptidase mediated metabolism.
(§2) HB-2121 is analogous to the TG2 inhibitor/probe HB-230 but with one modification; the primary amide C-terminus of HB-230 was replaced with a tertiary dimethyl amide. This change greatly enhances the gastrointestinal stability of the probe.

carboxypeptidase = experiment: Metabolism by carboxypeptidase; assay type: in vitro ADME; conditions: role: substrate, subsequent to chymotrypsin
Excerpt: as §1, §2

human TG2 = biological target: T1, human TG2 (Homo sapiens, UniProt P21980); experiment: Steady-state kinetic analysis / TG2 inhibition; assay type: biochemical; conditions: role: inhibitor, substrate PQLPF and inhibitor concentrations varied
T1 sequence (P21980 1-687): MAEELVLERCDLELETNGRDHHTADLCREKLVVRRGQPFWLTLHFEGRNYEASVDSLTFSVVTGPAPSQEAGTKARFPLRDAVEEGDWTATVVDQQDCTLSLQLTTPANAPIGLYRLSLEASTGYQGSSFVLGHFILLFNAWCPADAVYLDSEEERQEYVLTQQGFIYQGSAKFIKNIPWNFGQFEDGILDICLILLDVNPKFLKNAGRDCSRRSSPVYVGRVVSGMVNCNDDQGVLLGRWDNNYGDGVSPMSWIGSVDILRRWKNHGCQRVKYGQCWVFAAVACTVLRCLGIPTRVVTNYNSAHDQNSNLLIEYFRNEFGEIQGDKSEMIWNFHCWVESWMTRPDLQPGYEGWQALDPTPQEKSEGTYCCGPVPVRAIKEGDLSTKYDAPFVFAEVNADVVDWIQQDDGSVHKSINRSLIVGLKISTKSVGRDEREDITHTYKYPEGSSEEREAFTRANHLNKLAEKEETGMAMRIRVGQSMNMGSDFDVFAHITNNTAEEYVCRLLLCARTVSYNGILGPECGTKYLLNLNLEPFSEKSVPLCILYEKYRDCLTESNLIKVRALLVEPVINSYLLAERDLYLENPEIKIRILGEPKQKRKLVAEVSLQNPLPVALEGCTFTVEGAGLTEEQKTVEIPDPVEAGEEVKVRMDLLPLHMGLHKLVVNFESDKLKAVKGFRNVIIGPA
Excerpt: FIG. 1: Kinetic analysis of TG2 inhibition by HB-225. Both substrate (PQLPF) and inhibitor concentrations were varied.
FIG. 2: Comparison of TG2 inhibition by HB-225 and HB-230. The two compounds have very similar kinetic properties.
Encouraged by this finding, we went on to design and synthesize our target fluorescent probe, HB230, in which a second unnatural amino acid residue, diaminobutyrate (DAB), was installed in place of Leu (L) in HB225. This residue was also predicted to neither be recognized by TG2 nor HLA-DQ2. Attachment of a Sulfo-Cy5 fluorophore via amide linkage to the DAB residue yielded the desired probe.

[5] = high concentrations of both the probe and α2M

Molecule: methyl-β-cyclodextrin
inhibition of α2M and peptide colocalization as large endocytic puncta ([1]; 12.5 mM MβCD): strong inhibition

Molecule: CC(=O)N1CCC[C@H]1C(=O)N[C@@H](CCCCC(=O)N(C)C)C(=O)N[C@@H](CCNC(=O)CCCCC[N+]1=C(/C=C/C=C/C=C2/N(C)c3ccc(S(=O)(=O)O)cc3C2(C)C)C(C)(C)c2cc(S(=O)(=O)[O-])ccc21)C(=O)N1CCC[C@H]1C(=O)N[C@@H](Cc1ccccc1)C(N)=O [HB-258]
appearance of intracellular puncta [2, 5]: only appears as small intracellular puncta
uptake by NRK cells (probe without electrophilic warhead) [2, 5]: does not undergo significant uptake by NRK cells

Molecule: CC(=O)N1CCC[C@H]1C(=O)N[C@@H](CCC(N)=O)C(=O)N[C@@H](CCC(=O)NCCOCCOCCNC(=O)CCCC[C@@H]1SC[C@@H]2NC(=O)N[C@@H]21)C(=O)N1CCC[C@H]1C(=O)N[C@@H](Cc1ccccc1)C(N)=O [HB-3-003] (HELM PEPTIDE1{[ac].P.Q.E.P.F.[am]}|CHEM1{[O=C(CCCC[C@@H]1SC[C@@H]2NC(=O)N[C@@H]21)NCCOCCOCCN[*:1]]}$PEPTIDE1,CHEM1,4:R3-1:R1$$$V2.0)
endocytosis of fluorescent streptavidin (streptavidin; presence of α2M, 90 min): endocytosed in an HB3-3 dose dependent manner

Molecule: O=C(N/N=C/c1cc(O)c(O)cc1O)c1cc2ccccc2cc1O [Dyno-4a]
inhibition of α2M and peptide colocalization as large endocytic puncta ([1]; 20 uM Dyno-4a): strong inhibition

Molecule: O=C(O)CCCC[C@@H]1SC[C@@H]2NC(=O)N[C@@H]21 [Biotin, reference compound]
uptake of streptavidin by individual components (streptavidin; component alone, NRK cells): do not lead to increased uptake of streptavidin

Molecule: O=C1N=C(NS(=O)(=O)c2cccc3ccccc23)S/C1=C\c1ccc(Br)cc1 [Pitstop-2]
inhibition of α2M and peptide colocalization as large endocytic puncta ([1]; 25 uM Pitstop): strong inhibition

Molecule: CC(=O)N1CCC[C@H]1C(=O)N[C@@H](CCC(N)=O)C(=O)N[C@@H](CC(C)C)C(=O)N1CCC[C@H]1C(=O)N[C@@H](Cc1ccccc1)C(=O)N[C@H](C(=O)N[C@@H](CCCNC(N)=O)C(=O)NCCCCCCNC(=O)CCCCC[N+]1=C(/C=C/C=C/C=C2/N(C)c3ccccc3C2(C)C)C(C)(C)c2ccccc21)C(C)C [HB-2108] (HELM PEPTIDE1{[ac].P.Q.L.P.F.V.[Cit].[CN1/C(=C/C=C/C=C/C2=[N+](CCCCCC(=O)NCCCCCCN[*:1])c3ccccc3C2(C)C)C(C)(C)c2ccccc21]}$$$$V2.0)
Cy5 staining / colocalization with α2M (NRK cells [3]; absence of cathepsin B inhibitor): very diffuse and no longer colocalizes with α2M
Cy5 staining / colocalization with α2M (NRK cells [3]; pre-treatment with cathepsin inhibitor): remains strongly colocalized with α2M in the lysosome

Molecule: LQLQPFPQPQLPYPQPQLPYPQPQLPYPQPQPF [33 mer, 33-residue gluten peptide tagged with a Sulfo-Cy5 fluorophore]
co-localized endocytosis with fluorescent α2M (NRK cells [4]): entirely analogous pattern of co-localized endocytosis

Molecule: vitamin B12 [reference compound]
depletion of cubilin by individual components (cubilin; component alone): do not promote the depletion of cubilin

Molecule: NCCSSCCN [Cystamine, cystamine]
inactivation of TG2 (TG2): inactivates TG2 by promoting C370-C371 disulfide bond formation
internalization of fluorescent α2M (α2M): unable to promote rapid internalization of fluorescent α2M by itself

Molecule: CC(=O)N1CCC[C@H]1C(=O)N[C@@H](CC/C=C/C(=O)N(C)C)C(=O)N[C@@H](CCNC(=O)CCCCC[N+]1=C(/C=C/C=C/C=C2/N(C)c3ccc(S(=O)(=O)O)cc3C2(C)C)C(C)(C)c2cc(S(=O)(=O)[O-])ccc21)C(=O)N1CCC[C@H]1C(=O)N[C@@H](Cc1ccccc1)C(=O)N(C)C [HB-2121]
metabolism by chymotrypsin (chymotrypsin): complete resistance to metabolism
metabolism by carboxypeptidase (carboxypeptidase): no subsequent metabolism
uptake by NRK cells with or without α-2-macroglobulin ([2]; 2 μM HB-2121, with or without 100 μg/mL α-2-macroglobulin): α2M-enhanced endocytic uptake

Ki (human TG2): 13 µM
kinact (human TG2; read-out: ki (inactivation of TG2) (converted)): 0.000833 s⁻¹
Molecule: CC(=O)N1CCC[C@H]1C(=O)N[C@@H](CC/C=C/C(=O)N(C)C)C(=O)N[C@@H](CC(C)C)C(=O)N1CCC[C@H]1C(=O)N[C@@H](Cc1ccccc1)C(N)=O [HB-225] (HELM PEPTIDE1{[ac].P.[CN(C)C(=O)/C=C/CC[C@H](N[*:1])C(=O)[*:2]].L.P.F.[am]}$$$$V2.0)

B1: RAP: inhibitor of LRP-1 (protein, UniProt P30533 35-357, looked up)
Alpha-2-macroglobulin …: YSREKNQPKPSPKRESGEEFRMEKLNQLWEKAQRLHLPPVRLAELHADLKIQERDELAWKKLKLDGLDEDGEKEARLIRNLNVILAKYGLDGKKDARQVTSNSLSGTQEDGLDDPRLEKLWHKAKTSGKFSGEELDKLWREFLHHKEKVHEYNVLLETLSRTEEIHENVISPSDLSDIKGSVLHSRHTELKEKLRSINQGLDRLRRVSHQGYSTEAEFEEPRVIDLWDLAQSANLTDKELEAFREELKHFEAKIEKHNHYQKQLEIAHEKLRHAESVGDGERVSRSREKHALLEGRTKELGYTVKKHLQDLSGRISRARHNEL
effect of LRP-1 inhibition on depletion of surface cubilin (cubilin; LRP-1 inhibited through RAP, HB3-2 with intrinsic factor): mitigates the depletion of surface cubilin
